Laboratory results taken from patent EP0303243A2, “Use of atrial natriuretic factor (ANF), fragments and analogues thereof, for the treatment of cardiac disorders” (HOECHST AKTIENGESELLSCHAFT, priority 1987, dated 1989).
Non-standard residues stand in square brackets, D forms with d. Residues, ends and D or L forms follow the SMILES beside them.

System: isolierten arbeitenden Rattenherzen
Experiment: Isolated working rat heart (Langendorff) with coronary occlusion (ischaemia) and reperfusion
Parameters: species or system Ratten
Settings: 10^-7 mol/l; for Myokardiale Gewebsspiegel von ATP / Myokardiale Gewebsspiegel von Glykogen / Myokardiale Gewebsspiegel von KP / Myokardiale Gewebsspiegel von Laktat: ischaemic hearts perfused for 65 Minuten; for KK / LDH / Laktat: coronary venous effluent
Text: Die erfindungsgemäßen Verbindungen verbessern arrhythmische Zustände, die Hämodynamik und den Stoffwechsel des Herzens. Ihre Wirkung wurde an Ratten im Test nach Langendorff geprüft (0. Langendorff "Untersuchungen am überlebenden Säugetierherzen", Pflügers Archiv […], Bd. 61, 291 - 332; H. Bardenheuer, J. Schrader "Relationships between myocardial oxygen consumption, coronary flow and adenosin release in an improved isolated working heart preparation of guinea pigs", Circulation Research, 1983, Bd. 51, 263 - 271
Die Koronargefäße der isolierten arbeitenden Rattenherzen wurden retrograd über die Aorta mit Krebs-Henseleit-Lösung perfundiert. In den linken Ventrikel wurde ein Ballon verbracht, der mit einem künstlichen "systemischen" Kreislauf verbunden war. Die Druck-Volumenarbeit wurde erreicht, indem aus dem Ballon in den systemischen Kreislauf Kochsalzlösung gepumpt wurde. Die Herzen wurden mit einem Druck von 65 mmHg perfundiert, die Nachlast betrug ebenfalls 65 mmHg und die Vorlast 7,4 mmHg. In einer Kontrollperfusionsperiode wurden die Herzen über 20 Minuten perfundiert. Danach wurde die linke Koronararterie in der Nähe ihres Austritts aus der Aorta mit einem Clip verschlossen. Nach 15 Minuten (ischämische Periode) wurde der Verschluß geöffnet und es schloß sich eine 30 minütige Reperfusionsphase an. Während dieses experimentellen Zeitverlaufs untersuchten wir die Effekte des ANF auf kardiodynamische Parameter, wie linker Ventrikeldruck (LVD), dp/dt max, Herzfrequenz (HF), Koronarfluß (KorF), myokardialer Sauerstoffverbrauch (MSV), auf Enzyme im koronarvenösen Effluat wie Laktat dehydrogenase (LDH) und Kreatinkinase (KK) sowie Laktat, auf metabolische Parameter im Myokard wie Laktat, Glykogen, Adenosintriphosphat (ATP) und Kreatinphosphat (KP) und auf Reperfusionsarrhythmien mittels EKG.
Eine Substanz wird dann als wirksam bezeichnet, wenn nach dem Abklemmen der linken Herzkoronararterie und anschließender Reperfusion keine Arrhythmien - im Vergleich zur unbehandelten Kontrolle - entstehen, wobei das Kammerflimmern (KF) einen meßbaren Parameter darstellt.
Die erfindungsgemäßen Verbindungen wurden in den entsprechenden Konzentrationen vor und nach Okklusion der linken Koronararterie perfundiert (n:10); (n:4). Kontrollherzen wurden mit Krebs-Henseleit-Lösung perfundiert (n:10).

Compound	Myokardiale Gewebsspiegel von ATP	Myokardiale Gewebsspiegel von Glykogen	Myokardiale Gewebsspiegel von KP	Myokardiale Gewebsspiegel von Laktat	HF (Ischämische Periode) [Schläge/Min]	KorF (Ischämische Periode)	LVD (Ischämische Periode)	LVdp/dtmax (Ischämische Periode)	HF (Kontrollperfusionsperiode) [Schläge/Min]	KorF (Kontrollperfusionsperiode)	LVD (Kontrollperfusionsperiode)	LVdp/dtmax (Kontrollperfusionsperiode)	HF (Reperfusionsperiode) [Schläge/Min]	KorF (Reperfusionsperiode)	LVD (Reperfusionsperiode)	LVdp/dtmax (Reperfusionsperiode)	KK (Ischämische Periode)	LDH (Ischämische Periode)	Laktat (Ischämische Periode)	KK (Kontrollperfusionsperiode) [mU/min/g]	also measured
CC[C@H](C)[C@@H]1NC(=O)[C@H](CCCNC(=N)N)NC(=O)[C@@H](CC(C)C)NC(=O)[C@H]([C@@H](C)CC)NC(=O)[C@@H](CCCNC(=N)N)NC1=O [cyclo-(D-Arg-Ile-D-Leu-Arg-Ile)] (cyclo(I[dL]RI[dR]))	* 13,25 ± 0,41 µmol/g Trockengewicht	* 121,09 ± 2,97 µmol/g Trockengewicht	* 15,22 ± 0,83 µmol/g Trockengewicht	* 3,87 ± 0,46 µmol/g Trockengewicht	299 ± 7	* 8,7 ± 0,4 ml/Min/g	* 49 ± 4 mmHg	* 1784 ± 109 mmHg • sec^-1	306 ± 7	12,3 ± 0,8 ml/Min/g	68 ± 3 mmHg	2589 ± 101 mmHg • sec^-1	284 ± 10	* 12,9 ± 0,9 ml/Min/g	48 ± 6 mmHg	1724 ± 111 mmHg • sec^-1	* 32 ± 5 mU/min/g	* 22 ± 4 mU/min/g	* 0,24 ± 0,03 µmol/min/g	32 ± 4	LDH (Kontrollperfusionsperiode): 29 ± 5 mU/min/g; Laktat (Kontrollperfusionsperiode): * 0,18 ± 0,04 µmol/min/g; KK (Reperfusionsperiode): * 20 ± 4 mU/min/g; LDH (Reperfusionsperiode): * 14 ± 3 mU/min/g; Laktat (Reperfusionsperiode): * 0,16 ± 0,05 µmol/min/g
human ANF-(103-126) [h-ANF(103-126)]	* 11,01 ± 0,59 µmol/g Trockengewicht	* 113,15 ± 3,74 µmol/g Trockengewicht	* 13,89 ± 0,99 µmol/g Trockengewicht	* 4,03 ± 0,62 µmol/g Trockengewicht	301 ± 5	* 9,0 ± 0,2 ml/Min/g	* 45 ± 3 mmHg	* 1663 ± 117 mmHg • sec^-1	298 ± 4	11,1 ± 0,2 ml/Min/g	* 55 ± 2 mmHg	* 2125 ± 91 mmHg • sec^-1	280 ± 4	* 11,7 ± 0,3 ml/Min/g	* 37 ± 2 mmHg	* 1385 ± 91 mmHg • sec^-1	* 30 ± 2 mU/min/g	* 20 ± 2 mU/min/g	* 0,18 ± 0,01 µmol/min/g	28 ± 3	MSV (Ischämische Periode): * 11,5 ± 0,3 ml/min/100 g; MSV (Kontrollperfusionsperiode): * 14,5 ± 0,3 ml/min/100 g; MSV (Reperfusionsperiode): 14,7 ± 0,4 ml/min/100 g; LDH (Kontrollperfusionsperiode): 21 ± 2 mU/min/g; Laktat (Kontrollperfusionsperiode): * 0,13 ± 0,01 µmol/min/g; KK (Reperfusionsperiode): * 18 ± 2 mU/min/g; LDH (Reperfusionsperiode): * 12 ± 1 mU/min/g; Laktat (Reperfusionsperiode): * 0,12 ± 0,04 µmol/min/g; KF (ventricular fibrillation (Kammerflimmern), Reperfusionsperiode): * 2,7 ± 0,9 Min
